Reference: patent US6215002A, “Pyrrolopyrrolone derivatives as inhibitors of neutrophil elastase” (priority 1996, dated 2001)
Counter-ions that a name gives are not always drawn.

Experiments:
[1] = molecular target: T1, human neutrophil elastase (Homo sapiens, UniProt P08246); experiment: In vitro assay of human neutrophil elastase (HNE); type: biochemical; settings: 118 nM purified human neutrophil elastase, pH 8.6, 15 min incubation at 30° C., MeO-succinyl-alanyl-alanyl-prolyl-valyl-p-nitroanilide substrate; read-out: HNE IC50
T1 sequence (P08246 30-267): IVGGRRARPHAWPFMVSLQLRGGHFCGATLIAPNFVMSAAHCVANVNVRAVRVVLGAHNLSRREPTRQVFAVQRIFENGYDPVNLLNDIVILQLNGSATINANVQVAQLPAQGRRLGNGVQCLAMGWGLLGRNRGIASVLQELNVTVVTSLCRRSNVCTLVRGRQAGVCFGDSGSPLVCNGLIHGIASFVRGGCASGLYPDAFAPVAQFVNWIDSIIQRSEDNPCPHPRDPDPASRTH
Outline: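 Residual activity was taken as the 10 min rate of absorbance rise at 405 nm after adding 0.6 mM MeO-succinyl-AAPV-p-nitroanilide. Curve fitting of activity against concentration gave IC50.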

Intracellular elastase = experiment: Oral in vivo model using IL-8 induced lung infiltrates for the assessment of intracellular elastase inhibition (hamster test); settings: effective dose of less than 40 mg/kg, IL-8 intratracheal
Description: An Oral in vivo Model Using IL-8 Induced Lung Infiltrates For the Assessment of Intracellular Elastase Inhibition
Adult hamsters (100-150 g) are randomised into groups (n=4) and fasted overnight. Under gaseous anaesthetic (3% isofluorane) animals are dosed orally with 1 mL/100 g water as vehicle or containing predissolved compounds. Either at the same time, or subsequently under anaesthetic, animals are dosed intratracheally with 1 ug recombinant human IL-8 in 100 uL sterile saline. Six hours after IL-8 dosing animals are sacrificed using intrapertoneal pentobarbitone. The lungs are ravaged with 2×2.5 mL sterile saline and femurs are removed by dissection.
Intracellular elastase is prepared from neutrophils collected by lavage and from femoral bone marrow. This is achieved by sonication of the neutrophils and centrifugation to yield intracellular granules. These are disrupted by freeze/thawing and sonication. Elastase and myeloperoxidase assays are then performed on these samples to assess the efficacy of the compounds and to normalise for neutrophil recovery.

Structure (SMILES) | IC50 [1] [µM] | duration of effect (Intracellular elastase)
CC(C)[C@H]1C(=O)N(S(C)(=O)=O)[C@H]2CCN(C(=O)/C=C/CN(C)CC(N)=O)[C@H]12 (relative stereo) [Example 150, rel-2-{[(4-(6R-Isopropyl-4-methanesulfonyl-5-oxo-hexahydro-(3aS,6aR)-pyrro[3,2-b]pyrrol-1-yl)-4-oxo-but-2E-enyl]-methyl-amino}-acetamide hydrochloride] | 0.05 | at least 6 hours
CC(C)NC/C=C/C(=O)N1CC[C@H]2[C@H]1[C@@H](C(C)C)C(=O)N2S(C)(=O)=O.Cl (relative stereo) [Example 151, rel-(3R,3aR,6aS)-3-Isopropyl-4-(4-isopropylamino-but-2E-enoyl)-1-methanesulfonyl-hexahydro-pyrrolo[3,2-b]pyrrol-2-one hydrochloride] | 0.085 | at least 6 hours
CC(C)[C@H]1C(=O)N(S(C)(=O)=O)[C@H]2CCN(C(=O)/C=C/CN3C[C@H]4Cc5c(F)ccc(F)c5C[C@@H]4C3)[C@H]12 (relative stereo) [Example 153, rel-(3R,3aR,6aS)-4-[4-(5,8-Difluoro-1,3,3a,4,9,9a-hexahydro-(3aS,9aS)-benzol[f]isoindol-2-yl)-but-2E-enoyl]-3-isopropyl-1-methanesulfonyl-hexahydro-pyrrolo[3,2-b]pyrrol-2-one hydrochloride] | 0.114 | at least 6 hours
CC(C)[C@H]1C(=O)N(S(C)(=O)=O)[C@H]2CCN(C(=O)c3ccc(CN4CCCC4)cc3)[C@H]12.Cl (relative stereo) [Example 173, rel-(3R,3aR,6aS)-3-Isopropyl-1-methanesulfonyl-4-(4-pyrrolidin-1-ylmethyl-benzoyl)-hexahydro-pyrrolo[3,2-b]pyrrol-2-one hydrochloride] | 0.065 | at least 6 hours
CC(C)[C@H]1C(=O)N(S(C)(=O)=O)[C@H]2CCN(C(=O)c3ccc(CN(C)C)cc3)[C@H]12.Cl (relative stereo) [Example 175, rel-(3R,3aR,6aS)-4-(4-Dimethylaminomethyl-benzoyl)-3-isopropyl-1-methanesulfonyl-hexahydro-pyrrolo[3,2-b]pyrrol-2-one hydrochloride] | 0.074 | at least 6 hours
CC(C)[C@H]1C(=O)N(S(C)(=O)=O)[C@H]2CCN(C(=O)c3ccc(CN4CCN(C)CC4)cc3)[C@H]12.Cl.Cl (relative stereo) [Example 176, rel-(3R,3aR,6aS)-3-Isopropyl-1-methanesulfonyl-4-[4-(4-methyl-piperazin-1-ylmethyl)-benzoyl]-hexahydro-pyrrolo[3,2-b]pyrrol-2-one dihydrochloride] | 0.09 | at least 6 hours
CC(C)[C@H]1C(=O)N(S(C)(=O)=O)[C@H]2CCN(C(=O)c3ccc(CN4CCCCCC4)cc3)[C@H]12 (relative stereo) [Example 178, rel-(3R,3aR,6aS)-4-(4-Azepin-1-ylmethyl-benzoyl)-3-isopropyl-1-methanesulfonyl-hexahydro-pyrrolo[3,2-b]pyrrol-2-one hydrochloride] | 0.068 | at least 6 hours
CC(C)NCc1ccc(C(=O)N2CC[C@H]3[C@H]2[C@@H](C(C)C)C(=O)N3S(C)(=O)=O)cc1.Cl (relative stereo) [Example 179, rel-(3R,3aR,6aS)-3-Isopropyl-4-[4-(isopropylamino-methyl)-benzoyl]-1-methanesulfonyl-hexahydro-pyrrolo[3,2-b]pyrrol-2-one hydrochloride] | 0.047 | at least 6 hours

More lines, main results first:

IC50 [1] [µM] | Structure (SMILES) | duration of effect (Intracellular elastase)
0.046 | CC(C)[C@H]1C(=O)N(S(C)(=O)=O)[C@H]2CCN(C(=O)/C=C/CN3C(C)CCC3C)[C@H]12.Cl (relative stereo) [Example 149, rel-(3R,3aR,6aS)-4-[4-(2,5-Dimethyl-pyrrolidin-1-yl)-but-2E-enoyl]-3-isopropyl-1-methanesulfonyl-hexahydro-pyrrolo[3,2-b]pyrrol-2-one hydrochloride] | at least 6 hours
0.021 | CC(C)[C@H]1C(=O)N(S(C)(=O)=O)[C@H]2CCN(C(=O)/C=C/CN3CCC(C(N)=O)CC3)[C@H]12.Cl (relative stereo) [Example 152, rel-1-[4-(6R-Isopropyl-4-methanesulfonyl-5-oxo-hexahydro-(3aS,6aR)-pyrrolo[3,2-b]pyrrol-1-yl)-4-oxo-but-2E-enyl]-piperidine-4-carboxylic acid amide hydrochloride] | at least 6 hours
0.019 | CC(C)[C@H]1C(=O)N(S(C)(=O)=O)[C@H]2CCN(C(=O)/C=C/c3ccc(CN4CCCCC4)cc3)[C@H]12.Cl (relative stereo) [Example 158, rel-(3R,3aR,6aS)-3-Isopropyl-1-methanesulfonyl-4-[3-(4-piperidin-1-ylmethyl-phenyl)-(E)-acryloyl]-hexahydro-pyrrolo[3,2-b]pyrrol-2-one hydrochloride] | at least 6 hours
0.017 | CC(C)[C@H]1C(=O)N(S(C)(=O)=O)[C@H]2CCN(C(=O)/C=C/c3ccc(CN(C)C)cc3)[C@H]12 (relative stereo) [Example 159, hydrochloride] | at least 6 hours
0.013 | CC(C)[C@H]1C(=O)N(S(C)(=O)=O)[C@H]2CCN(C(=O)c3ccc(CN4CCCCC4)cc3)[C@H]12.Cl (relative stereo) [Example 174, rel-(3R,3aR,6aS)-3-Isopropyl-1-methanesulfonyl-4-(4-piperidin-1-ylmethyl-benzoyl)-hexahydro-pyrrolo[3,2-b]pyrrol-2-one hydrochloride] | at least 6 hours
0.02 | CC(C)[C@H]1C(=O)N(S(C)(=O)=O)[C@H]2CCN(C(=O)c3ccc(CN4CCOCC4)cc3)[C@H]12.Cl (relative stereo) [Example 177, rel-(3R,3aR,6aS)-3-Isopropyl-1-methanesulfonyl-4-(4-morpholin-4-ylmethyl-benzoyl)-hexahydro-pyrrolo[3,2-b]pyrrol-2-one hydrochloride] | at least 6 hours
0.042 | CC(C)[C@H]1C(=O)N(S(C)(=O)=O)[C@H]2CCN(C(=O)c3ccc(CNC4CC4)cc3)[C@H]12.Cl (relative stereo) [Example 180, rel-(3R,3aR,6aS)-4(4-Cyclopropylaminomethyl-benzoyl)-3-isopropyl-1-methanesulfonyl-hexahydro-pyrrolo[3,2-b]pyrrol-2-one hydrochloride] | at least 6 hours
0.042 | CCCN(C)Cc1ccc(C(=O)N2CC[C@H]3[C@H]2[C@@H](C(C)C)C(=O)N3S(C)(=O)=O)cc1.Cl (relative stereo) [Example 181, rel-(3R,3aR,6aS)-3-Isopropyl-1-methanesulfonyl-4-{4-[(methyl-propyl-amino)-methyl]-benzoyl}-hexahydro-pyrrolo[3,2-b]pyrrol-2-one hydrochloride] | at least 6 hours
0.043 | CCN(CC)Cc1ccc(C(=O)N2CC[C@H]3[C@H]2[C@@H](C(C)C)C(=O)N3S(C)(=O)=O)cc1.Cl (relative stereo) [Example 182, rel-(3R,3aR,6aS)-4-(4-Diethylaminomethyl-benzoyl)-3-isopropyl-1-methanesulfonyl-hexahydro-pyrrolo[3,2-b]pyrrol-2-one hydrochloride] | at least 6 hours
0.046 | COC(=O)[C@@H]1CCCN1Cc1ccc(C(=O)N2CC[C@H]3[C@H]2[C@@H](C(C)C)C(=O)N3S(C)(=O)=O)cc1 (relative stereo) [Example 183, 1-[4-(rel-6R-Isopropyl-4-methanesulfonyl-5-oxo-hexahydro-(3aS,6aR)-pyrrolo[3,2-b]pyrrole-1-carbonyl)-benzyl]-pyrrolidine-2S-carboxylic acid methyl ester hydrochloride] | at least 6 hours
0.012 | CC(C)[C@H]1C(=O)N(S(C)(=O)=O)[C@H]2CCN(C(=O)c3ccc(CN4CCC5CCCCC5C4)cc3)[C@H]12.Cl (relative stereo) [Example 184, rel-(3R,3aR,6aS)-3-Isopropyl-1-methanesulfonyl-4-[4-(octahydro-isoquinolin-2-ylmethyl)-benzoyl]-hexahydro-pyrrolo[3,2-b]pyrrol-2-one hydrochloride] | at least 6 hours
0.033 | CC(=O)N1CCN(Cc2ccc(C(=O)N3CC[C@H]4[C@H]3[C@@H](C(C)C)C(=O)N4S(C)(=O)=O)cc2)CC1 (relative stereo) [Example 185, rel-(3R,3aR,6aS)-4-[4-Acetyl-piperazin-1-ylmethyl)-benzoyl]-3-isopropyl-1-methanesulfonyl-hexahydro-pyrrolo[3,2-b]pyrrol-2-one hydrochloride] | at least 6 hours
